Source: ChEMBL document CHEMBL3045303, “An efficient, solvent-free microwave-assisted synthesis and antimicrobial screening of 1,6-dihydropyrimidine analogues” (2012)
In brackets after ≈: the same amount, converted by molar mass.

Tests used:
Assay type in all cases: functional
[1] = tested on: Candida albicans; assay: Antimicrobial activity against Candida albicans MTCC 227 after 72 hr by serial broth dilution method; conditions: MTCC 227, 72 h
[2] = tested on: Pseudomonas aeruginosa; assay: Antimicrobial activity against Pseudomonas aeruginosa MTCC 1688 after 24 hr by serial broth dilution method; conditions: MTCC 1688, 24 h
[3] = tested on: Streptococcus pyogenes; assay: Antimicrobial activity against Streptococcus pyogenes MTCC 442 after 24 hr by serial broth dilution method; conditions: MTCC 442, 24 h
[4] = tested on: Aspergillus niger; assay: Antimicrobial activity against Aspergillus niger MTCC 282 after 72 hr by serial broth dilution method; conditions: MTCC 282, 72 h
[5] = tested on: Staphylococcus aureus; assay: Antimicrobial activity against Staphylococcus aureus MTCC 96 after 24 hr by serial broth dilution method; conditions: MTCC 96, 24 h
[6] = tested on: Escherichia coli; assay: Antimicrobial activity against Escherichia coli MTCC 443 after 24 hr by serial broth dilution method; conditions: MTCC 443, 24 h
[7] = tested on: Aspergillus clavatus; assay: Antimicrobial activity against Aspergillus clavatus MTCC 1323 after 72 hr by serial broth dilution method; conditions: MTCC 1323, 72 h

Row | SMILES | MIC [1] [µg/mL] | MIC [2] [µg/mL] | MIC [3] [µg/mL] | MIC [4] [µg/mL] | MIC [5] [µg/mL] | MIC [6] [µg/mL] | MIC [7] [µg/mL]
1 | COC1=CC(=O)C[C@@H](C)[C@]12Oc1c(Cl)c(OC)cc(OC)c1C2=O [GRISEOFULVIN] | 500 (≈ 1420 µM) |  |  | 100 (≈ 283 µM) |  |  | 100 (≈ 283 µM)
2 | N#CCCCSC1=NC(c2ccc(N)cc2)=CC(c2cccc(O)c2)N1 (configuration not stated) | 50 (≈ 137 µM) | 500 (≈ 1370 µM) | 200 (≈ 549 µM) | 500 (≈ 1370 µM) | 250 (≈ 686 µM) | 500 (≈ 1370 µM) | 500 (≈ 1370 µM)
3 | Cc1cccc(C2C=C(c3ccc(N)cc3)N=C(SCCCC#N)N2)c1 (configuration not stated) | 1000 (≈ 2760 µM) | 500 (≈ 1380 µM) | 500 (≈ 1380 µM) | 500 (≈ 1380 µM) | 1000 (≈ 2760 µM) | 1000 (≈ 2760 µM) | 1000 (≈ 2760 µM)
4 | COc1cc(C2C=C(c3ccc(N)cc3)N=C(S)N2)ccc1O (configuration not stated) |  |  | 250 (≈ 764 µM) |  |  | 250 (≈ 764 µM) | 
5 | Nc1ccc(C2=CC(c3ccc(O)cc3)NC(S)=N2)cc1 (configuration not stated) |  |  | 250 (≈ 841 µM) |  |  | 250 (≈ 841 µM) | 
6 | CC1(C)S[C@@H]2[C@H](NC(=O)[C@H](N)c3ccccc3)C(=O)N2[C@H]1C(=O)O [AMPICILLIN] |  | 100 (≈ 286 µM) | 100 (≈ 286 µM) |  | 250 (≈ 715 µM) | 100 (≈ 286 µM) | 
7 | Cc1ccc(C2C=C(c3ccc(N)cc3)N=C(SCCCC#N)N2)cc1 (configuration not stated) | 1000 (≈ 2760 µM) | 500 (≈ 1380 µM) | 500 (≈ 1380 µM) | 50 (≈ 138 µM) | 50 (≈ 138 µM) | 100 (≈ 276 µM) | 100 (≈ 276 µM)
8 | N#CCCCSC1=NC(c2ccc(N)cc2)=CC(c2ccc(O)cc2)N1 (configuration not stated) | 500 (≈ 1370 µM) | 1000 (≈ 2740 µM) | 50 (≈ 137 µM) | 500 (≈ 1370 µM) | 500 (≈ 1370 µM) | 25 (≈ 68.6 µM) | 200 (≈ 549 µM)

Now from value to compound:

Row | MIC [1] [µg/mL] | MIC [2] [µg/mL] | MIC [3] [µg/mL] | MIC [4] [µg/mL] | MIC [5] [µg/mL] | MIC [6] [µg/mL] | MIC [7] [µg/mL] | SMILES
9 | 1000 (≈ 2610 µM) | 100 (≈ 261 µM) | 100 (≈ 261 µM) | 500 (≈ 1310 µM) | 500 (≈ 1310 µM) | 100 (≈ 261 µM) | 100 (≈ 261 µM) | N#CCCCSC1=NC(c2ccc(N)cc2)=CC(c2ccc(Cl)cc2)N1 (configuration not stated)
10 |  | 250 (≈ 803 µM) |  |  |  |  |  | COc1ccc(C2C=C(c3ccc(N)cc3)N=C(S)N2)cc1 (configuration not stated)
11 | 1000 (≈ 2870 µM) | 50 (≈ 143 µM) | 1000 (≈ 2870 µM) | 100 (≈ 287 µM) | 500 (≈ 1430 µM) | 500 (≈ 1430 µM) | 1000 (≈ 2870 µM) | N#CCCCSC1=NC(c2ccc(N)cc2)=CC(c2ccccc2)N1 (configuration not stated)
12 | 500 (≈ 1270 µM) | 100 (≈ 254 µM) | 500 (≈ 1270 µM) | 50 (≈ 127 µM) | 500 (≈ 1270 µM) | 500 (≈ 1270 µM) | 200 (≈ 508 µM) | N#CCCCSC1=NC(c2ccc(N)cc2)=CC(c2ccc([N+](=O)[O-])cc2)N1 (configuration not stated)
13 |  | 250 (≈ 888 µM) |  |  |  |  |  | Nc1ccc(C2=CC(c3ccccc3)NC(S)=N2)cc1 (configuration not stated)
14 | 200 (≈ 549 µM) | 250 (≈ 686 µM) | 100 (≈ 274 µM) | 100 (≈ 274 µM) | 250 (≈ 686 µM) | 50 (≈ 137 µM) | 500 (≈ 1370 µM) | N#CCCCSC1=NC(c2ccc(N)cc2)=CC(c2ccccc2O)N1 (configuration not stated)
15 | 500 (≈ 1320 µM) | 25 (≈ 66.1 µM) | 500 (≈ 1320 µM) | 200 (≈ 528 µM) | 100 (≈ 264 µM) | 100 (≈ 264 µM) | 50 (≈ 132 µM) | COc1ccc(C2C=C(c3ccc(N)cc3)N=C(SCCCC#N)N2)cc1 (configuration not stated)
16 | 100 (≈ 253 µM) | 100 (≈ 253 µM) | 100 (≈ 253 µM) | 100 (≈ 253 µM) | 250 (≈ 634 µM) | 25 (≈ 63.4 µM) | 100 (≈ 253 µM) | COc1cc(C2C=C(c3ccc(N)cc3)N=C(SCCCC#N)N2)ccc1O (configuration not stated)
17 | 1000 (≈ 2760 µM) | 250 (≈ 690 µM) | 1000 (≈ 2760 µM) | 500 (≈ 1380 µM) | 1000 (≈ 2760 µM) | 500 (≈ 1380 µM) | 1000 (≈ 2760 µM) | Cc1ccccc1C1C=C(c2ccc(N)cc2)N=C(SCCCC#N)N1 (configuration not stated)
18 | 1000 (≈ 2550 µM) | 250 (≈ 638 µM) | 1000 (≈ 2550 µM) | 500 (≈ 1280 µM) | 250 (≈ 638 µM) | 500 (≈ 1280 µM) | 1000 (≈ 2550 µM) | CN(C)c1ccc(C2C=C(c3ccc(N)cc3)N=C(SCCCC#N)N2)cc1 (configuration not stated)
